Test results reported in patent EP1433789A1, “Pyrrolopyrazines and their use as selective apoptosis inducers” (Aponetics AG, priority 2002, dated 2004).

Experiments:
[1] = system: A20; assay: Hoechst 33342 nuclear staining (Table 3); type: cell-based, mouse; set-up: key: 0 relating to no activity; 1 relating to weak activity comprising less than 50% of the cells; score 2 relating to strong activity comprising more than 50% of the cells
Procedure: This assay is performed in 96 well tissue culture plates. Appropriate number of cells (adherent cells: 3 - 5*10^3, suspension cells: 8 - 10*10^3) are being seeded out in 80 µl complete medium. Adherent cells are incubated for 24 h for proper spreading out before addition of test compounds while suspension cells are immediately treated with test compounds after seeding out. The test compounds are added in 20 µl complete medium containing max 5% DMSO. The final compound concentrations in the assays are 10 µM, 3 µM,1 µM and 0.3 µM, respectively. After 24 h or 48 h incubation at culture conditions, 10 µl medium containing Hoechst 33342 dye (Sigma B-2261) at 2-5 µg/ml are added to each well. The assay plates are then further incubated for 30 minutes and subsequently analyzed with a standard inverted fluorescence microscope. The readout allows the determination of the fraction of apoptotic nuclei as well as other morphological criteria specific for apoptosis as a function of the treatment. The following scores are used: 0 relating to no activity, 1 relating to weak activity comprising less than 50% of the cells and score 2 relating to strong activity comprising more than 50% of the cells.

[2] = system: Jurkat; assay: Hoechst 33342 nuclear staining (Table 3); type: cell-based, human; set-up: key: 0 relating to no activity; 1 relating to weak activity comprising less than 50% of the cells; score 2 relating to strong activity comprising more than 50% of the cells
Summary of the method: (§1)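 Adherent cells (3-5×10^3, pre-spread 24 h) or suspension cells (8-10×10^3) treated with compounds at 10, 3, 1 and 0.3 µM for 24 or 48 h, then Hoechst 33342 stained for 30 min. Apoptotic nuclear morphology scored by fluorescence microscopy: 0 none, 1 weak (<50% cells), 2 strong (>50% cells).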

[3] = system: HeLa; assay: Hoechst 33342 nuclear staining (Table 3); type: cell-based, human; set-up: key: 0 relating to no activity; 1 relating to weak activity comprising less than 50% of the cells; score 2 relating to strong activity comprising more than 50% of the cells
Summary of the method: as §1

[4] = system: KB; assay: Hoechst 33342 nuclear staining (Table 3); type: cell-based, human; set-up: key: 0 relating to no activity; 1 relating to weak activity comprising less than 50% of the cells; score 2 relating to strong activity comprising more than 50% of the cells
Summary of the method: as §1

[5] = system: K562; assay: Hoechst 33342 nuclear staining (Table 3); type: cell-based, human; set-up: key: 0 relating to no activity; 1 relating to weak activity comprising less than 50% of the cells; score 2 relating to strong activity comprising more than 50% of the cells
Summary of the method: as §1

[6] = system: Jurkat; assay: AnnexinV/7-AAD staining; type: cell-based, human; details: 10 µM, 24 h treatment
Summary of the method: (§2)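 Cells treated with compound at 10 µM final for 24 h, then stained with AnnexinV-GST/anti-GST Alexa 488 and 7-AAD and analysed by flow cytometry. Percent positive cells scored as 0 (<10%), 1 (10–50%) or 2 (>50%).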

[7] = system: Ramos; assay: AnnexinV/7-AAD staining; type: cell-based, human; details: 10 µM, 24 h treatment
Summary of the method: as §2

[8] = system: HeLa; assay: AnnexinV/7-AAD staining; type: cell-based, human; details: 10 µM, 24 h treatment
Summary of the method: as §2

[9] = system: A20; assay: AnnexinV/7-AAD staining; type: cell-based, mouse; details: A20, 10 µM, 24 h treatment
Summary of the method: as §2

[10] = system: Jurkat; assay: MTS proliferation assay; type: cell-based; details: Homo sapiens, 72 h incubation
Procedure: (§3) The assay is performed in 96 well tissue culture plates. The cells (range : 1.5*10^3-10^4) are seeded out in 80 µl complete medium 24 h prior to compound treatment. The test compounds are added in 20 µl complete medium containing max 5% DMSO. The final compound concentrations in the assays are 10 µM, 3 µM,1 µM and 0.3 µM, respectively. The assay plates are incubated for 72 h at culture conditions. The MTS reagent is prepared according to the manufacturer's protocol (Promega G1111 ). 20 µl MTS reagent are added to each well, the assay plates are quickly spun and incubated for another 3 h at culture conditions. Subsequently, the plates are shortly shaked and absorption measured with a microplate-reader at 492 nm.

[11] = system: HeLa; assay: MTS proliferation assay; type: cell-based; details: Homo sapiens, 72 h incubation
Procedure: as §3

[12] = system: K562; assay: MTS proliferation assay; type: cell-based; details: Homo sapiens, K562, 72 h incubation
Procedure: as §3

## COc1cc2c(cc1OC)-c1c(Cl)c3nc4ccccc4nc3n1C(C)C2 (centres unmarked) [compound 12]
[1]; A20, 24h, conc 0.3 (µM)
  Hoechst 33342 nuclear staining: 0
[1]; A20, 24h, conc 1 (µM)
  Hoechst 33342 nuclear staining: 0
[1]; A20, 24h, conc 3 (µM)
  Hoechst 33342 nuclear staining: 0
[1]; A20, 24h, conc 10 (µM)
  Hoechst 33342 nuclear staining: 0
[1]; A20, 48h, conc 0.3 (µM)
  Hoechst 33342 nuclear staining: 0
[1]; A20, 48h, conc 1 (µM)
  Hoechst 33342 nuclear staining: 0
[1]; A20, 48h, conc 3 (µM)
  Hoechst 33342 nuclear staining: 0
[1]; A20, 48h, conc 10 (µM)
  Hoechst 33342 nuclear staining: 2 (score 2 relating to strong activity comprising more than 50% of the cells)
[2]; 24h, conc 0.3 (µM)
  Hoechst 33342 nuclear staining: 0
[2]; 24h, conc 1 (µM)
  Hoechst 33342 nuclear staining: 0
[2]; 24h, conc 3 (µM)
  Hoechst 33342 nuclear staining: 1 (1 relating to weak activity comprising less than 50% of the cells)
[2]; 24h, conc 10 (µM)
  Hoechst 33342 nuclear staining: 2 (score 2 relating to strong activity comprising more than 50% of the cells)
[2]; 48h, conc 0.3 (µM)
  Hoechst 33342 nuclear staining: 1 (1 relating to weak activity comprising less than 50% of the cells)
[2]; 48h, conc 1 (µM)
  Hoechst 33342 nuclear staining: 2 (score 2 relating to strong activity comprising more than 50% of the cells)
[2]; 48h, conc 3 (µM)
  Hoechst 33342 nuclear staining: 2 (score 2 relating to strong activity comprising more than 50% of the cells)
[2]; 48h, conc 10 (µM)
  Hoechst 33342 nuclear staining: 2 (score 2 relating to strong activity comprising more than 50% of the cells)
[3]; 24h, conc 0.3 (µM)
  Hoechst 33342 nuclear staining: 0
[3]; 24h, conc 1 (µM)
  Hoechst 33342 nuclear staining: 0
[3]; 24h, conc 3 (µM)
  Hoechst 33342 nuclear staining: 0
[3]; 24h, conc 10 (µM)
  Hoechst 33342 nuclear staining: 0
[3]; 48h, conc 0.3 (µM)
  Hoechst 33342 nuclear staining: 0
[3]; 48h, conc 1 (µM)
  Hoechst 33342 nuclear staining: 1 (1 relating to weak activity comprising less than 50% of the cells)
[3]; 48h, conc 3 (µM)
  Hoechst 33342 nuclear staining: 2 (score 2 relating to strong activity comprising more than 50% of the cells)
[3]; 48h, conc 10 (µM)
  Hoechst 33342 nuclear staining: 2 (score 2 relating to strong activity comprising more than 50% of the cells)
[4]; 24h, conc 0.3 (µM)
  Hoechst 33342 nuclear staining: 0
[4]; 24h, conc 1 (µM)
  Hoechst 33342 nuclear staining: 0
[4]; 24h, conc 3 (µM)
  Hoechst 33342 nuclear staining: 0
[4]; 24h, conc 10 (µM)
  Hoechst 33342 nuclear staining: 2 (score 2 relating to strong activity comprising more than 50% of the cells)
[4]; 48h, conc 0.3 (µM)
  Hoechst 33342 nuclear staining: 0
[4]; 48h, conc 1 (µM)
  Hoechst 33342 nuclear staining: 0
[4]; 48h, conc 3 (µM)
  Hoechst 33342 nuclear staining: 2 (score 2 relating to strong activity comprising more than 50% of the cells)
[4]; 48h, conc 10 (µM)
  Hoechst 33342 nuclear staining: 2 (score 2 relating to strong activity comprising more than 50% of the cells)
[5]; K562, 24h, conc 0.3 (µM)
  Hoechst 33342 nuclear staining: 0
[5]; K562, 24h, conc 1 (µM)
  Hoechst 33342 nuclear staining: 0
[5]; K562, 24h, conc 3 (µM)
  Hoechst 33342 nuclear staining: 0
[5]; K562, 24h, conc 10 (µM)
  Hoechst 33342 nuclear staining: 2 (score 2 relating to strong activity comprising more than 50% of the cells)
[5]; K562, 48h, conc 0.3 (µM)
  Hoechst 33342 nuclear staining: 0
[5]; K562, 48h, conc 1 (µM)
  Hoechst 33342 nuclear staining: 1 (1 relating to weak activity comprising less than 50% of the cells)
[5]; K562, 48h, conc 3 (µM)
  Hoechst 33342 nuclear staining: 2 (score 2 relating to strong activity comprising more than 50% of the cells)
[5]; K562, 48h, conc 10 (µM)
  Hoechst 33342 nuclear staining: 2 (score 2 relating to strong activity comprising more than 50% of the cells)
[6]
  percentage of positively stained cells (AnnexinV/7-AAD staining): 2 (score 2 relates to more than 50% positivity)
[7]
  percentage of positively stained cells (AnnexinV/7-AAD staining): 2 (score 2 relates to more than 50% positivity)
[8]
  percentage of positively stained cells (AnnexinV/7-AAD staining): 2 (score 2 relates to more than 50% positivity)
[9]
  percentage of positively stained cells (AnnexinV/7-AAD staining): 2 (score 2 relates to more than 50% positivity)
[10]
  IC50: > 10 µM
[11]
  IC50: > 10 µM
[12]
  IC50: > 10 µM
